Data from US4400517A, “Phosphoric esters derived from 1,2,4-triazole having an insecticidal, nematocidal and acaricidal action, and their preparation” (priority 1976, dated 1983).
Where two headings read alike, the source gives them in different places.

What was measured:
[1] = tested on: Leptinotarsa decemlineata; assay: Biological activity on Leptinotarsa decemlineata (Coleoptera); format: in vivo
Description: (3) Biological activity on Leptinotarsa decemlineata (Coleoptera)
Small potato plants grown in pots were infested with 4-day old larvae, and were then sprinkled with an aqueous dispersion of the products under examination (see Tables 4 and 5).
The mortality percentage (untreated small plants=0) was determined after 48 hours from treatment.

Hilemyia brassicae = assay: Biological activity on Hilemyia brassicae (Diptera); format: in vivo; details: Table 4
Description: (9) Biological activity on Hilemyia brassicae (Diptera)
Samples of soil were treated by uniform mixing with an aqueous dispersion of the products under examination (see Tables 4 and 5). The soil was then divided into two pots and in each of these 4 small radish plants were transplanted. The plants were subsequently infected by putting to the soil 50 Diptera eggs in the middle of the surface of the pots.
The results were recorded 10 days after treatment by extracting the plants from the soil and by counting the number of larvae present on the roots and on the surrounding soil.
The insecticidal activity was expressed as percentage of reduction of the infestation in comparison with the witness plants (plants transplanted into untreated soil, activity=0).

Pieris brassicae = assay: Biological activity on Pieris brassicae (Lepidoptera); format: in vivo; details: 48 h
Description: (2) Biological activity on Pieris brassicae (Lepidotera)
Cut-off cauliflower leaves were sprinkled with an aqueous dispersion of the products under examination (see TABLE 5).
After drying, the leaves were infested with 5-day old larvae. The percentage of mortality of the larvae (untreated leaves=0) was determined after 48 hours from treatment.

Culex pipiens = assay: Biological activity on Culex pipiens larvae (Diptera); format: in vivo
Description: (4) Biological activity on Culex pipiens (Diptera)
Into glasses containing an aqueous dispersion of the products under examination (see Tables 4 and 5) there were introduced mosquito larvae of third and fourth age.
The mortality percentage of the larvae (glasses containing pure water=0) was determined after 24 hours from treatment.

Blatta orientalis = assay: Biological activity on Blatta orientalis (Ortoptera); format: in vivo; details: for % ge of activity, Blatta o.: Table 4, 2880 min; for mortality at 0.01 g/m2 / mortality at 1 g/m2: Blatta orientalis, 48 h, read-out: Activity (mortality class), Blatta O.
Description: (10) Biological activity on Blatta orientalis (Ortoptera)
The bottom and walls of glass crystallizers were treated uniformly with an acetonic solution of the products under examination (see Tables 4 and 5). After evaporation of the solvent, into each crystallizer were introduced ten 80-100 days old neanides. The crystallizers were then closed with a metal net cover. After 24 hours from the start of the treatment, the insects were transferred to similar untreated crystallizers, and there were appropriately nourished in conventional manner.
The percentage of mortality (untreated insects=0) was determined after 48 hours from the start of the treatment.

Spodoptera littoralis = assay: Biological activity on Spodoptera littoralis (Lepidoptera); format: in vivo
Description: (7) Biological activity on Spodoptera littoralis (Lepidoptera)
Cut tobacco leaves were sprinkled with an aqueous dispersion of the products under examination (see Tables 4 and 5).
After drying, the leaves were infested with 5-day old larvae.
The percentage of mortality of the larvae was determined after 48 hours from treatment (untreated leaves, mortality=0).

Meloidogyne icognita = assay: Biological activity on Meloidogyne icognita (Nematoda); format: in vivo; details: 20 ppm; Table 4
Description: (8) Biological activity on Meloidogyne icognita (Nematoda)
A 1:1 mixture of field soil and sand, infested with newborne larvae and eggs of Nematoda, were treated, by uniform admixing, with an aqueous dispersion of the products under examination (see Tables 4 and 5). The soil was then distributed into plastic pots, and after 5 days in each pot there were planted 5 small tomato plants about 20 cm high.
The results were recorded 21 days after the transplanting.
The nematocidal activity was expressed as the percentage reduction of infestation with respect to the witness (small plants transplanted into a non-treated soil, activity=0).

Locusta M. = assay: Activity on Locusta M.; details: in vivo
Tetranychus urticae [2] = assay: Biological activity on adults of Tetranychus urticae (Acari); format: in vivo
Description: (5) Biological activity on adults of Tetranychus urticae (Acari)
Discs of bean leaves were infested with adult acari and then sprinkled with an aqueous dispersion of the products under examination (see Tables 4 and 5).
The mortality percentage was determined after 24 hours from treatment (untreated leaf discs, mortality=0).

warm-blooded animals = assay: Toxicity toward warm-blooded animals / mammals; format: in vivo
Macrosiphum euphorbiae = assay: Biological activity on Macrosiphum euphorbiae (Aphides); format: in vivo; details: potato plants, 24 h
Description: (1) Biological activity on Macrosiphum euphorbiae (Aphides)
Potato plants grown in pots were infested with adult females of aphides and, after several hours, were sprinked with an aqueous dispersion of the products under examination (see TABLE 5).
The percentage of mortality was assessed after 24 hours after the treatment (untreated plants=0).

Tetranychus urticae [3] = assay: Biological activity on Tetranychus urticae eggs (Acari); format: in vivo; details: bean leaf discs, 144 h
Description: (6) Biological activity on Tetranychus urticae (Acari)
Small discs of bean leaves were infested with Acari eggs and were then sprinkled with an aqueous dispersion of the products under examination (see Table 5).
The mortality percentage was determined after 6 days from treatment (untreated leaf discs, mortality=0).

[4] = Toxicity on albino rats by oral administration; details: rat, in vivo
[5] = 48 h, read-out: Activity (mortality class), Leptinotarsa D.
[6] = 0.01%o, Table 5, read-out: Activity (mortality class), Pieris B.
[7] = 24 h, read-out: Activity (mortality class), Culex P. (larvae)
[8] = 48 h, read-out: Activity (mortality class), Spodoptera L.
[9] = 24 h, read-out: Activity (mortality class), Tetranychus U. (adults)
[10] = read-out: Activity (mortality class), Pieris B.
[11] = 48 h, 0.05%o, Table 5, read-out: Activity (mortality class), Leptinotarsa D.
[12] = 48 h, 1%o, Table 5, read-out: Activity (mortality class), Leptinotarsa D.
[13] = 1%o, Table 5, read-out: Activity (mortality class), Pieris B.
[14] = 24 h, 2 ppm, Table 5, read-out: Activity (mortality class), Culex P. (larvae)
[15] = 48 h, 1%o, Table 5, read-out: Activity (mortality class), Spodoptera L.
[16] = 24 h, 0.01%o, Table 5, read-out: Activity (mortality class), Tetranychus U. (adults)
[17] = 24 h, 1%o, Table 5, read-out: Activity (mortality class), Tetranychus U. (adults)
[18] = 24 h, 0.02 ppm, Table 5, read-out: Activity (mortality class), Culex P. (larvae)

SMILES | mortality at 0.005 % [1, 5] | mortality at 0.001 % (Pieris brassicae; [6]) | mortality at 0.02 ppm (Culex pipiens; [7]) | mortality at 0.01 g/m2 (Blatta orientalis; 0,01 g/m^2, Table 5) | mortality at 0.005 % (Spodoptera littoralis; [8]) | Activity (mortality class), Locusta M. (Locusta M.) | mortality at 0.001 % (Tetranychus urticae [2]; [9]) | mortality at 0.1 % [1, 5] | mortality at 0.1 % (Pieris brassicae; [10]) | mortality at 2 ppm (Culex pipiens; [7]) | mortality at 1 g/m2 (Blatta orientalis) | mortality at 0.1 % (Spodoptera littoralis; [8]) | Activity (mortality class), Macrosiphum E. (Macrosiphum euphorbiae) | mortality at 0.1 % (Tetranychus urticae [2]; [9]) | Activity (mortality class), Tetranychus U. (eggs) (Tetranychus urticae [3]) | mortality at 0.1 % (Pieris brassicae; [13]) | mortality at 2 ppm (Culex pipiens; [14]) | mortality at 1 g/m2 (Blatta orientalis; 1 g/m^2, Table 5) | LD50 [4] | mortality at 0.001 % (Tetranychus urticae [2]; [16]) | further results
CCOP(=S)(OCC)Oc1nc(-c2ccccc2)nn1C [M 8172, 0,0-diethyl-0-[1-methyl-3-phenyl-1,2,4-triazolyl(5)]-thiophosphate, reference compound] | 10 to 69% | 0 to 9% | 0 to 9% | 10 to 69% | 10 to 69% | + (70-99% of mort.) | 70 to 99% |  |  |  |  |  |  |  |  |  |  |  |  |  | mortality at 0.01 % ([1]; 48 h, 0,1%o, Table 4, read-out: % ge of activity, Leptinotarsa d.): 92%; mortality at 0.005 % ([1]; 48 h, 0,05%o, Table 4, read-out: % ge of activity, Leptinotarsa d.): 10%; % ge of activity, Hylemyia b. (Hilemyia brassicae; 2 ppm): 48%; % ge of activity, Hylemyia b. (Hilemyia brassicae; 10 ppm): 98%; mortality at 0.02 ppm (Culex pipiens; 24 h, 0,02 ppm, Table 4, read-out: % ge of activity, Culex p.): 0%; mortality at 0.2 ppm (Culex pipiens; 24 h, 0,2 ppm, Table 4, read-out: % ge of activity, Culex p.): 100%; % ge of activity, Blatta o. (Blatta orientalis; 0,01 g/m^2): 20%; % ge of activity, Blatta o. (Blatta orientalis; 0,1 g/m^2): 100%; mortality at 0.01 % (Spodoptera littoralis; 48 h, 0,1%o, Table 4, read-out: % ge of activity, Spodoptera l.): 100%; mortality at 0.005 % (Spodoptera littoralis; 48 h, 0,05%o, Table 4, read-out: % ge of activity, Spodoptera l.): 15%; % ge of activity, Meloidogyne i. (Meloidogyne icognita): 40%; mortality at 0.001 % (Tetranychus urticae [2]; 24 h, 0,01%o, Table 4, read-out: % ge of activity, Tetranycus u. (ad.)): 96%; mortality at 0.0005 % (Tetranychus urticae [2]; 24 h, 0,005%o, Table 4, read-out: % ge of activity, Tetranycus u. (ad.)): 76%; toxicity in words (warm-blooded animals): low toxicity towards mammals
CCCCn1nc(C=C(Cl)Cl)nc1OP(=S)(OCCC)OCCC [M 8475] |  |  |  |  |  | ± (10-69% of mort.) |  | 100% | 100% | 100% | 0 to 9% | 10 to 69% | ± (10-69% of mort.) | 10 to 69% | ++ (100% of mortality) |  |  |  |  |  | 
CC=C(Br)c1nc(OP(=S)(OCC)OCC)n(C)n1 [M 8549] |  | 10 to 69% |  |  |  |  |  |  |  |  |  |  |  |  |  | 100% | 100% | 100% | 1000 mg/kg | 10 to 69% | mortality at 0.005 % [1, 11]: 100%; mortality at 0.1 % [1, 12]: 100%; mortality at 0.1 % (Spodoptera littoralis; [15]): 100%; mortality at 0.1 % (Tetranychus urticae [2]; [17]): 100%
CCOP(=S)(OCC)Oc1nc(C(C)=C(Cl)Cl)nn1C [M 8550] |  | 100% |  | 10 to 69% |  |  |  |  |  |  |  |  |  |  |  | 100% | 100% | 100% | 1700 mg/kg | 10 to 69% | mortality at 0.005 % [1, 11]: 100%; mortality at 0.1 % [1, 12]: 100%; mortality at 0.02 ppm (Culex pipiens; [18]): 70 to 99%; mortality at 0.1 % (Spodoptera littoralis; [15]): 100%; mortality at 0.1 % (Tetranychus urticae [2]; [17]): 100%
CCOP(=S)(OCC)Oc1nc(C(Cl)=C(Cl)Cl)nn1C [M 8560] | 100% |  |  |  | 70 to 99% |  |  | 100% | 100% |  | 100% | 100% |  | 100% |  |  | 100% |  | 1200 mg/kg | 100% | mortality at 0.001 % (Pieris brassicae; [10]): 70 to 99%; mortality at 0.02 ppm (Culex pipiens; [18]): 10 to 69%
CC=C(Cl)c1nc(OP(=S)(OCC)OCC)n(C)n1 [M 8634] |  |  |  | 10 to 69% |  |  |  |  |  |  |  |  |  |  |  | 100% | 100% | 100% | 1400 mg/kg | 10 to 69% | mortality at 0.005 % [1, 11]: 100%; mortality at 0.1 % [1, 12]: 100%; mortality at 0.005 % (Spodoptera littoralis; 48 h, 0.05%o, Table 5, read-out: Activity (mortality class), Spodoptera L.): 10 to 69%; mortality at 0.1 % (Spodoptera littoralis; [15]): 100%; mortality at 0.1 % (Tetranychus urticae [2]; [17]): 100%
C=CCn1nc(C=C(Cl)Cl)nc1OP(=S)(OCC)OCC [M 8764] | 100% |  | 100% |  | 100% | ++ (100% of mortality) | 100% | 100% |  | 100% |  | 100% | ++ (100% of mortality) | 100% | ++ (100% of mortality) | 100% |  | 100% |  |  | 
CCOP(=S)(OCC)Oc1nc(C(C)=C(Cl)Cl)nn1CC [M 9141] | 100% |  | 70 to 99% |  |  | ++ (100% of mortality) | 10 to 69% | 100% | 100% | 100% | 100% | 100% | ++ (100% of mortality) | 100% | ++ (100% of mortality) |  |  |  |  |  | 
CCOP(=S)(OCC)Oc1nc(Cl)n(C(C)C)n1 [Miral®, Diethyl-(1-isopropyl-5-chloro-1,2,4-triazole-3-yl) phosphoro-thionate, reference compound] |  |  |  |  |  |  |  |  |  |  |  |  |  |  |  |  |  |  | 60 mg/kg |  | 
